Source: patent US7718764B2, “Biologically active peptide [sequence] derivatives” (CMS Peptides Patent Holding Company Limited, priority 2004, dated 2010)
Marks after values point to notes of the source that are not given here.

Key:
S180 sarcoma cells = test: Growth of KM mice-transplanted S180 sarcoma cells in vivo; design: unit not given here; details: for Sarcoma volume: V=(1/6)πABC, saline 1.20 ± 0.28
Protocol: S180 sarcoma cells were transplanted intraperitoneally into KM mice for 6-8 days and the ascites aseptically collected. The cell concentration was adjusted to 1×10^7 per ml with 10% FBS RPMI-1640, and 0.2 ml cell suspension was injected through the armpit into each KM mice for developing the sarcoma bearing mice model. […] Intraperitoneal injection of test substances started on the day immediately after tumor transplantation and continued once per day for 20 consecutive days.
On the day after the last test substance administration, the sarcomas were removed from the mice and weighed. The diameters of each sarcoma on the three planes (A, B, C) were measured by a vernier caliper. The volume of the sarcoma was calculated by the formula: V=(⅙)πABC.

mice T-lymphocyte = test: Mice T-lymphocyte transformation in vivo (i.p. dosing 20 days, spleen cells + ConA, MTT, stimulation index); design: species or system BALB/c mice; details: for Effect on mice T-lymphocyte transformation in vivo: at suitable dosages, vs saline control P<0.05
Protocol: Animals were randomized into two peptide groups (200 μg/kg/day and 50 μg/kg/day), Cyclosporine A group (10 mg/kg/day), and saline group (0.5 ml/day). Each group contained 10 mice, in which half were female and half were male. All test substances were dissolved in 0.5 ml saline and administered intraperitoneally once per day for 20 days. T-lymphocyte transformation and NK cell activity were examined on the day immediately following the last injection. The day after the last test substance administration, the mice were sacrificed by cervical dislocation. The spleens were isolated aseptically and manually dispersed in 10% FBS RPMI-1640 solution using an injection needle. The dispersed cell suspension was further sieved through a 100 gauge 150 μm diameter stainless steel sieve and adjusted to 4×10^6/ml. The cell suspensions were inoculated onto a 96 wells cell culture plate, 100 μl/well with the following design. Assay wells: 100 μl cell suspension+100 μl ConA Control wells: 100 μl cell suspension+100 μl RPMI-1640 Four assay and four control wells were set up for each animal. The plates were incubated at 37° C., 5% CO2 for 68 hours. MTT was then added and the plates read at OD 570 nm referenced at 630 nm with ELISA reader. Stimulation Index SI (%)=(assay well OD/control well OD)×100%.

mice NK cell = test: Mice NK cell activity in vivo (i.p. dosing 20 days, spleen effector cells vs YAC-1 target cells, MTT); design: species or system BALB/c mice
Protocol: Animals were randomized into two peptide groups (200 μg/kg/day and 50 μg/kg/day), Cyclosporine A group (10 mg/kg/day), and saline group (0.5 ml/day). Each group contained 10 mice, in which half were female and half were male. All test substances were dissolved in 0.5 ml saline and administered intraperitoneally once per day for 20 days. T-lymphocyte transformation and NK cell activity were examined on the day immediately following the last injection. YAC-1 target cells were brought to log phase and adjusted to a density of 1×10^5/ml. Mice spleen cells prepared in section 2.2.2 above were adjusted to a density of 4×10^6/ml and used as effector cells. The cell suspensions were inoculated onto 96 wells cell culture plates as follows: Effector cell wells: 100 μl spleen cell suspension+100 μl RPMI-1640 Assay wells: 100 μl spleen cell suspension+100 μl YAC-1 cell suspension Target cell wells: 100 μl YAC-1 cell suspension+100 μl RPMI-1640 Three assay wells and three effector cell wells were set up for each animal, and 12 target cell wells were set up per cell culture plate. The plates were incubated at 37° C., 5% CO2 for 4 hours, then MTT was added and the plates were read at OD 570 nm referenced at 630 nm with ELISA reader. NK cell activity (%)=1−[(assay wells OD−effector cell wells OD)/target cell wells OD]×100%

[1] = Table 11, 10 μg/kg/day i.p. 20 days, saline 5.07 ± 5.46
[2] = Table 11, 50 μg/kg/day i.p. 20 days, saline 5.07 ± 5.46
[3] = Table 12, 250 μg/kg/day, saline 1.87 ± 0.52
[4] = Table 12, 500 μg/kg/day, saline 1.87 ± 0.52
[5] = Table 9, 50 μg/kg/day i.p. 20 days, saline 55.3 ± 6.1
[6] = at suitable dosage, vs saline control P<0.05

Row | Compound | Sarcoma volume (S180 sarcoma cells; Table 12, 250 μg/kg/day) | Sarcoma weight (S180 sarcoma cells; [3]) | Sarcoma volume (S180 sarcoma cells; Table 12, 500 μg/kg/day) | Sarcoma weight (S180 sarcoma cells; [4]) | other results
1 | VALLT [CMS-010.103] |  |  |  |  | Sarcoma weight (S180 sarcoma cells; [1]): 1.72 ± 1.53; Sarcoma weight (S180 sarcoma cells; [2]): 1.48 ± 1.44
2 | LTEAPLNPK [CMS-010.19] | 0.46 ± 0.58 | 0.41 ± 0.45*^@ | 0.40 ± 0.42 | 0.68 ± 0.68 | 
3 | O=P1(N(CCCl)CCCl)NCCCO1 (stereo not shown) [Cyclophosphamide, reference compound] |  |  |  |  | Sarcoma volume (S180 sarcoma cells; Table 12, 40 mg/kg/day): 0.76 ± 0.66; Sarcoma weight (S180 sarcoma cells; Table 12, 40 mg/kg/day, saline 1.87 ± 0.52): 1.07 ± 0.80
4 | VAPEEHPTLLTEAPL [CMS-010.07] | 0.24 ± 0.13*^@ | 0.32 ± 0.14*^@ | 0.37 ± 0.20 | 0.52 ± 0.25 | 
5 | NPK [CMS-010.31] | 0.25 ± 0.20*^@ | 0.27 ± 0.19*^@ | 0.43 ± 0.50 | 0.78 ± 0.89 | Sarcoma weight (S180 sarcoma cells; [1]): 1.05 ± 1.28; Sarcoma weight (S180 sarcoma cells; [2]): 1.20 ± 1.60
6 | VAPEEHPTLLTE [CMS-010.12] |  |  |  |  | SI (mice T-lymphocyte; Table 7, 50 μg/kg/d i.p. 20 days, saline 2.96 ± 0.61): 2.12 ± 0.42; Effect on mice T-lymphocyte transformation in vivo (mice T-lymphocyte): suppress
7 | VAPE [CMS-010.29] | 1.02 ± 0.66 | 1.24 ± 0.72 | 0.40 ± 0.11 | 0.55 ± 0.41 | 
8 | COc1cccc2c1C(=O)c1c(O)c3c(c(O)c1C2=O)C[C@@](O)(C(=O)CO)C[C@@H]3O[C@H]1C[C@H](N)[C@H](O)[C@H](C)O1 [Adriamycin, reference compound] |  |  |  |  | Sarcoma weight (S180 sarcoma cells; Table 11, 2 mg/kg/day i.p. 20 days, saline 5.07 ± 5.46): 1.52 ± 1.75
9 | VAPEE [CMS-010.27] | 0.58 ± 0.58 | 0.78 ± 0.68 | 0.51 ± 0.33 | 1.05 ± 0.86 | 
10 | PTLLTEAPLNPK [CMS-010.13] | 0.91 ± 0.59 | 0.92 ± 0.56 | 0.38 ± 0.23 | 0.73 ± 0.43 | NK cell activity (%) (mice NK cell; [5]): 70.9 ± 17.5 %; Effect on mice NK cell activity in vivo (enhancement) (mice NK cell; [6]): enhance
11 | APLNPK [CMS-010.24] | 0.36 ± 0.30 | 0.61 ± 0.39 | 0.62 ± 0.47 | 1.20 ± 0.79 | NK cell activity (%) (mice NK cell; Table 8, 50 μg/kg/day i.p. 20 days, saline 76.0 ± 4.3): 56.0 ± 6.0 %; NK cell activity (%) (mice NK cell; Table 8, 200 μg/kg/day i.p. 20 days, saline 76.0 ± 4.3): 69.0 ± 7.4 %; Effect on mice NK cell activity in vivo (suppression) (mice NK cell; [6]): suppress; SI (mice T-lymphocyte; Table 4, 50 μg/kg/day i.p. 20 days, saline 3.63 ± 0.69): 2.40 ± 0.31; Effect on mice T-lymphocyte transformation in vivo (mice T-lymphocyte): suppress
12 | VAPEEHPTL [CMS-010.18] | 0.27 ± 0.20*^@ | 0.44 ± 0.31*^@ | 0.58 ± 0.42 | 0.59 ± 0.48 | 
13 | HPTLLTEAPLNPK [CMS-010.11] | 0.63 ± 0.40 | 0.64 ± 0.31 | 0.95 ± 0.54 | 1.14 ± 0.74 | NK cell activity (%) (mice NK cell; [5]): 63.5 ± 4.7 %; Effect on mice NK cell activity in vivo (enhancement) (mice NK cell; [6]): enhance
14 | LLTEAPLNPK [CMS-010.17] | 0.40 ± 0.24 | 0.65 ± 0.41 | 0.55 ± 0.34 | 0.91 ± 0.46 | 
